The values below come from ChEMBL document CHEMBL1144019 (Bioorg Med Chem, 2008).

In brackets after ≈: the same amount, converted by molar mass.

Series [1] deals with Haemophilus influenzae. Briefly: Antibacterial activity against Haemophilus influenzae ATCC 49766 by standard serial agar dilution method. The series is classed as functional.
Series [2] is described as follows: Stability in presence of AmpC beta-lactamase. It counts as ADME.
Series [3] has as its system Escherichia coli. The series is described as follows: Antibacterial activity against Escherichia coli SR-21003 by standard serial agar dilution method. It counts as functional.
The subject of series [4] is Pseudomonas aeruginosa. Briefly: Antibacterial activity against imipenem-resistant Pseudomonas aeruginosa SR-6554 by standard serial agar dilution method. It counts as functional.
Series [5] concerns Haemophilus influenzae. The series is described as follows: Antibacterial activity against beta-lactamase negative ampicillin-resistant Haemophilus influenzae SR-11435 by standard serial agar dilution method. The series is classed as functional.
In another series the test system is Streptococcus pneumoniae. Briefly: Antibacterial activity against penicillin-resistant Streptococcus pneumoniae SR-16675 by standard serial agar dilution method. The series is classed as functional.
In series [6] the test system is Enterobacter cloacae. Briefly: Antibacterial activity against Enterobacter cloacae ATCC 13047 by standard serial agar dilution method. The series is classed as functional.
For series [7], the system named is Pseudomonas aeruginosa. The series is described as follows: Antibacterial activity against Pseudomonas aeruginosa SR24 by standard serial agar dilution method. It counts as functional.
In another series the test system is Staphylococcus aureus. The series is described as follows: Antibacterial activity against Staphylococcus aureus Smith by standard serial agar dilution method. It counts as functional.
In series [8] the test system is Pseudomonas aeruginosa. Briefly: Antibacterial activity against Pseudomonas aeruginosa SR-5393 by standard serial agar dilution method. The series is classed as functional.
Series [9] deals with Escherichia coli. The series is described as follows: Antibacterial activity against Toho 2 producing Escherichia coli by standard serial agar dilution method. It counts as functional.
The test system of the next series is Moraxella catarrhalis. Briefly: Antibacterial activity against Moraxella catarrhalis ATCC 43617 by standard serial agar dilution method. The series is classed as functional.
The test system of series [10] is Enterobacter cloacae. The series is described as follows: Antibacterial activity against AmpC producing Enterobacter cloacae SR-4321 by standard serial agar dilution method. It counts as functional.
In series [11] the test system is Pseudomonas aeruginosa. The series is described as follows: Antibacterial activity against AmpC hyperproducing Pseudomonas aeruginosa SR24-12 by standard serial agar dilution method. It counts as functional.

On to `CNCCNc1cc[n+](CC2=C(C(=O)[O-])N3C(=O)[C@@H](NC(=O)/C(=N\O[C@@H](C)C(=O)O)c4nc(N)sc4Cl)[C@H]3SC2)cc1`, for which the MIC worked out at 0.125 µg/mL (≈ 0.196 µM) against Haemophilus influenzae [1]; 0.5 µg/mL (≈ 0.782 µM) against Escherichia coli [3]; 16 µg/mL (≈ 25 µM) in the series on Pseudomonas aeruginosa [4]; 0.25 µg/mL (≈ 0.391 µM) against Haemophilus influenzae [5]; 4 µg/mL (≈ 6.26 µM) against Streptococcus pneumoniae; 0.5 µg/mL (≈ 0.782 µM) in the series on Enterobacter cloacae [6]. The MIC against Pseudomonas aeruginosa [7] was determined as 0.5 µg/mL (≈ 0.782 µM); in the series with Staphylococcus aureus it was 4 µg/mL (≈ 6.26 µM); in the series on Pseudomonas aeruginosa [8] it was 2 µg/mL (≈ 3.13 µM); against Escherichia coli [9] it was 4 µg/mL (≈ 6.26 µM); with Moraxella catarrhalis, 0.032 µg/mL (≈ 0.0501 µM); in the series on Enterobacter cloacae [10], 4 µg/mL (≈ 6.26 µM). Moreover, the MIC with Pseudomonas aeruginosa [11] stood at 4 µg/mL (≈ 6.26 µM). Besides, the Stability in [2] is 80.3%.
On to `C[C@H](O/N=C(\C(=O)N[C@@H]1C(=O)N2C(C(=O)[O-])=C(C[n+]3cccc4c3ccn4C)CS[C@H]12)c1nc(N)sc1Cl)C(=O)O`, for which the MIC against Haemophilus influenzae [1] stood at 0.016 µg/mL (≈ 0.0258 µM); against Escherichia coli [3] it was 0.125 µg/mL (≈ 0.202 µM); with Pseudomonas aeruginosa [4], 16 µg/mL (≈ 25.8 µM); in the series with Haemophilus influenzae [5] it was 0.032 µg/mL (≈ 0.0516 µM); with Streptococcus pneumoniae it was 2 µg/mL (≈ 3.23 µM); against Enterobacter cloacae [6], 0.25 µg/mL (≈ 0.403 µM). Also, the MIC came to 0.5 µg/mL (≈ 0.806 µM) against Pseudomonas aeruginosa [7]; 1 µg/mL (≈ 1.61 µM) in the series on Staphylococcus aureus; 2 µg/mL (≈ 3.23 µM) in the series with Pseudomonas aeruginosa [8]; 1 µg/mL (≈ 1.61 µM) in the series with Escherichia coli [9]; 0.016 µg/mL (≈ 0.0258 µM) in the series with Moraxella catarrhalis; 1 µg/mL (≈ 1.61 µM) in the series with Enterobacter cloacae [10]. Also, the MIC against Pseudomonas aeruginosa [11] turned out to be 4 µg/mL (≈ 6.45 µM).
On to `CC(=O)NCCn1ccc2c1ccc[n+]2CC1=C(C(=O)[O-])N2C(=O)[C@@H](NC(=O)/C(=N\O[C@@H](C)C(=O)O)c3nc(N)sc3Cl)[C@H]2SC1`, for which the MIC in the series on Haemophilus influenzae [1] is 0.032 µg/mL (≈ 0.0463 µM); with Escherichia coli [3] it was 0.25 µg/mL (≈ 0.362 µM); with Pseudomonas aeruginosa [4], 16 µg/mL (≈ 23.1 µM); in the series with Haemophilus influenzae [5], 0.125 µg/mL (≈ 0.181 µM); against Streptococcus pneumoniae it was 4 µg/mL (≈ 5.79 µM); against Enterobacter cloacae [6] it was 0.5 µg/mL (≈ 0.723 µM). For the same molecule, the MIC came to 2 µg/mL (≈ 2.89 µM) in the series with Pseudomonas aeruginosa [7]; 4 µg/mL (≈ 5.79 µM) in the series on Staphylococcus aureus; 4 µg/mL (≈ 5.79 µM) in the series on Pseudomonas aeruginosa [8]; 2 µg/mL (≈ 2.89 µM) in the series with Escherichia coli [9]; 0.032 µg/mL (≈ 0.0463 µM) with Moraxella catarrhalis; 4 µg/mL (≈ 5.79 µM) against Enterobacter cloacae [10]. In addition, the MIC with Pseudomonas aeruginosa [11] was determined as 8 µg/mL (≈ 11.6 µM).
Regarding `C[C@H](O/N=C(\C(=O)N[C@@H]1C(=O)N2C(C(=O)[O-])=C(C[n+]3cccc4c3ccn4CC(N)=O)CS[C@H]12)c1nc(N)sc1Cl)C(=O)O`, the MIC against Haemophilus influenzae [1] came to 0.032 µg/mL (≈ 0.0483 µM); in the series on Escherichia coli [3], 0.25 µg/mL (≈ 0.377 µM); with Pseudomonas aeruginosa [4], 16 µg/mL (≈ 24.1 µM); against Haemophilus influenzae [5] it was 0.063 µg/mL (≈ 0.095 µM); with Streptococcus pneumoniae, 2 µg/mL (≈ 3.02 µM); in the series on Enterobacter cloacae [6], 0.5 µg/mL (≈ 0.754 µM). Besides, the MIC against Pseudomonas aeruginosa [7] amounted to 1 µg/mL (≈ 1.51 µM); against Staphylococcus aureus, 2 µg/mL (≈ 3.02 µM); in the series on Pseudomonas aeruginosa [8], 4 µg/mL (≈ 6.03 µM); with Escherichia coli [9], 2 µg/mL (≈ 3.02 µM); in the series on Moraxella catarrhalis, 0.016 µg/mL (≈ 0.0241 µM); in the series with Enterobacter cloacae [10] it was 4 µg/mL (≈ 6.03 µM). Also, the MIC against Pseudomonas aeruginosa [11] stood at 4 µg/mL (≈ 6.03 µM).
For `CO/N=C(\C(=O)N[C@@H]1C(=O)N2C(C(=O)[O-])=C(C[N+]3(C)CCCC3)CS[C@H]12)c1csc(N)n1`, the MIC against Haemophilus influenzae [1] amounted to 0.032 µg/mL (≈ 0.0666 µM); with Escherichia coli [3], 0.063 µg/mL (≈ 0.131 µM); against Pseudomonas aeruginosa [4], 64 µg/mL (≈ 133 µM); against Haemophilus influenzae [5], 0.5 µg/mL (≈ 1.04 µM); in the series with Streptococcus pneumoniae, 2 µg/mL (≈ 4.16 µM); in the series with Pseudomonas aeruginosa [7] it was 0.5 µg/mL (≈ 1.04 µM). Further, the MIC was 2 µg/mL (≈ 4.16 µM) with Staphylococcus aureus; 4 µg/mL (≈ 8.32 µM) in the series on Pseudomonas aeruginosa [8]; 4 µg/mL (≈ 8.32 µM) with Escherichia coli [9]; 0.5 µg/mL (≈ 1.04 µM) against Moraxella catarrhalis; 32 µg/mL (≈ 66.6 µM) in the series with Pseudomonas aeruginosa [11]. Also, in series [2], the Stability is 12.9%.
For the molecule `CNCCCc1cc[n+](CC2=C(C(=O)[O-])N3C(=O)[C@@H](NC(=O)/C(=N\O[C@@H](C)C(=O)O)c4nc(N)sc4Cl)[C@H]3SC2)cc1`, the MIC against Haemophilus influenzae [1] was 0.125 µg/mL (≈ 0.196 µM); in the series with Escherichia coli [3] it was 1 µg/mL (≈ 1.57 µM); against Pseudomonas aeruginosa [4] it was 16 µg/mL (≈ 25.1 µM); against Haemophilus influenzae [5], 0.25 µg/mL (≈ 0.392 µM); in the series on Streptococcus pneumoniae it was 4 µg/mL (≈ 6.27 µM); with Enterobacter cloacae [6] it was 1 µg/mL (≈ 1.57 µM). The MIC turned out to be 1 µg/mL (≈ 1.57 µM) with Pseudomonas aeruginosa [7]; 8 µg/mL (≈ 12.5 µM) against Staphylococcus aureus; 4 µg/mL (≈ 6.27 µM) in the series on Pseudomonas aeruginosa [8]; 4 µg/mL (≈ 6.27 µM) in the series with Escherichia coli [9]; 0.032 µg/mL (≈ 0.0501 µM) with Moraxella catarrhalis; 8 µg/mL (≈ 12.5 µM) in the series with Enterobacter cloacae [10]. The same molecule returned an MIC against Pseudomonas aeruginosa [11] of 8 µg/mL (≈ 12.5 µM).
